Results on five compounds are retold here after US4382090A, “N-Thiazolylmethylthioalkyl-N'alkylamidines and related compounds” (Eli Lilly and Company, priority 1981, dated 1983).

For series [1], the target named is T1, H2 -receptors (Rattus norvegicus, UniProt P25102).
T1 construct: from tissue; host or cells: uterine horn of estrone-treated female albino rats
The experiment in a line: H2-receptor blocking activity, isolated rat uterine horn (histamine relaxation of KCl-contracted uterus). The note with it: for Kb: rat uterus, Schild plot, read-out: KB (dissociation constant of the antagonist). The method, then: The following assay for H2 -receptor blocking activity was employed. Female albino rats were treated with estrone 24 hours prior to the initiation of the experiment. The rats were sacrificed and the uterine horns removed therefrom and suspended at ambient temperatures in isolated organ baths containing De Jalon's solution. After equilibration, the uterine strips are exposed to 50 millimole aqueous potassium chloride, which produces a sustained contraction. When the uterus is so contracted, histamine produces a dose-dependent H2 -receptor-mediated relaxation. A control dose-response curve to histamine is constructed on each tissue. Following thorough washout of the histamine after obtaining the control dose-response curve, each antagonist (the compounds of this invention) is added for 30 minutes at a concentration of 10^-5 molar. The uterine strips are then contracted with aqueous potassium chloride in the presence of the antagonist and a second dose-response curve to histamine obtained. In the presence of a competitive antagonist, the dose-response curve to histamine is shifted in parallel to the right with no depression of the maximum relative to the control curve. The dose ratio (DR) is calculated for each concentration of antagonist by dividing the ED50 of histamine in the presence of the competitive antagonist by the control ED50 for histamine. The dissociation constant (KB) of the antagonist is calculated from the dose-ratios by the following equation: […]

Series [2] has as its system H2 -receptor. The note with it: cited from earlier work.
A short description of series [3]: Preliminary tests of duration of action.
In series [4] the test system is H2 -receptor. As to conditions: cited from earlier work. The source holds these as a separate data set.
The conditions of series [5]: cited from earlier work.
The conditions of series [6]: cited from earlier work. The source holds these as a separate data set.

T1 sequence (P25102 whole entry): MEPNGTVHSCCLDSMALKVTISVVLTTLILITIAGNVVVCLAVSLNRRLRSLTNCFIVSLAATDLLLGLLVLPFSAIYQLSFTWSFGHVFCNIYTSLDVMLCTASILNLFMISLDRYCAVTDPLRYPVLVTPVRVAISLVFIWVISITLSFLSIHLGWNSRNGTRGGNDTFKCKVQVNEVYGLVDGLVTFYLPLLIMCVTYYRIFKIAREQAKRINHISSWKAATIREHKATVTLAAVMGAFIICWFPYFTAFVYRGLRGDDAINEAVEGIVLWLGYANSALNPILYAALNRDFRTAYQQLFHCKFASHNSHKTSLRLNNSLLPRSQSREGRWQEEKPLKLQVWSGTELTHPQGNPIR

For the compound `CNC(=NC#N)NCCSCc1csc(CN(C)C)n1` [N-methyl-N'-2-(2-dimethylaminomethyl-4-thiazolylmethylthio)ethyl-N"-cyanoguanidine], the “affinity for the H2 -receptors relative to cimetidine” value in series [1] (rat uterine strips, antagonist 10^-5 molar for 30 minutes) was “about 1.5 times”.

For `C#CCNC(=C[N+](=O)[O-])NCCSCc1ccc(CN(C)C)o1` [1-nitro-2-(2-propynylamino)-2-(2-[(5-dimethylaminomethyl-2-furyl)methylthio]ethylamino)ethylene], the “activity relative to cimetidine in a standard H2 -receptor assay” value in series [2] is reported as 7.45 times.

On to `CNC(=C[N+](=O)[O-])NCCSCc1csc(CN(C)C)n1` [N-methyl-N'-2-(2-dimethylaminomethyl-4-thiazolylmethylthio)ethyl 2-nitro-1,1-ethenediamine], for which, in series [3], the “duration of action compared with cimetidine” value is given as “longer duration of action”. In series [1], the Kb came out at 87 nM.

On to `CNC(=NC#N)NCCSCc1csc(NC(=N)N)n1` [2-guanidino-4-[2-(2-cyano-3-methylguanidino)ethylthiomethyl]thiazole], for which, in series [4], the “activity compared with cimetidine” value is on record as “greatly increased activity over cimetidine”.

On to `CN/C(=N/CCSCc1nc[nH]c1C)NC#N` [cimetidine, N-cyano-N'-methyl-N"-[2-([(5-methyl-1H-imidazol-4-yl)methyl]thio)ethyl]guanidine], for which the antagonist dissociation constant (Kb) in series [1] was determined as 871 nM. The “Literature LD50 mouse iv” value in series [5] is 150 mg/kg. In series [6] (iv), the “Literature LD50 rat iv” value is listed as 106 mg/kg. Besides, in series [6] (oral), the “Literature LD50 rat oral” value is recorded as 5000 mg/kg.

By Kb is commonly meant the affinity of an antagonist, worked out from how it opposes an agonist.
